Laboratory results taken from patent publication US10189824B2, “Pyrimidine-diamine dual HSP90/TRAP1 inhibitors” (CalAsia Pharmaceuticals, Inc., priority 2014, dated 2019).

What was measured:
GBM10 = experiment: Cellular efficacy in Mayo Clinic GBM PDX cell line GBM10; assay type: cell-based
Procedure: Short-term explant cultures from PDX models were seeded into 96-well Perfecta3D hanging drop plates to form a single spheroid in each well after 2 days. The spheroids were transferred to a round bottom 96 well plate by centrifugation and then incubated with graded concentrations of test compound (8 spheroids per compound concentration). Spheroid volumes were monitored every 6 hours over the course of 5 days using the IncuCyte system (Essen BioScience, MI, US) to provide a growth curve akin to a tumor regrowth assay.

HEI193 cells = experiment: TMRE assay, HEI193 cell mitochondrial integrity; assay type: cell-based, human; conditions: observed as early as 2 hours after treatment
Procedure: Mitochondrial integrity was evaluated using Tetramethylrhodamine ethyl ester (TMRE) assay. A TMRE assay kit (Abcam) was used to evaluate Hsp90/TRAP1 inhibitor-induced changes in mitochondrial membrane potential. […] TMRE (200 nM) was then added to wells for 30 min and monitored for changes in fluorescence activity using a fluorescence plate reader (ex544/em 590) after washing the cells. Specific TMRE fluorescence was calculated by comparison to matched wells pretreated with the depolarizing proton ionophore carbonyl cyanide 4-(trifluoromethoxy)phenylhydrazone (FCCP) at 20 uM 10 min prior to addition of TMRE. For mitochondria assays, mitochondria was isolated using a kit from Thermoscientific and loaded with 0.1 mM TMRE. TMRE-loaded mitochondria (2 μg per well) were incubated with test compounds and monitored kinetically at 30° C. for changes in fluorescence using a flurorescence plate reader (ex 544/em 590) (FIGS. 6A, 9A and 12).

U251MG cells [1] = experiment: Cell viability assay, ATP quantitation (ADP-Glo); assay type: cell-based; conditions: Homo sapiens, U-251; 72 h at 37° C.; FIG. 1B
Procedure: (§1) U251MG cells were maintained at 37° C. and 5% CO2 in RPMI media supplemented with glutamax and containing 10% heat-inactivated fetal bovine serum and 1% penicillin/streptomycin (Life Sciences).
(§2) A cell counting kit (CCK-8 assay kit, Dojindo) and an ADP-Glo assay (Life Technologies) were used to quantitate the effects of test compounds on cell viability. U251MG cells were seeded into 96 well tissue culture plates and incubated for 16 h at 37° C. with 5% CO2. Increasing concentrations of test compounds were added to the wells from DMSO-containing stock solutions to a final DMSO concentration of 0.05% and incubated for 72 hr at 37° C. CCK-8 kit reagent or ADP-GLO reagent were then added to the wells and absorbance was measured at 450 nm (for the CCK assay) using a Synergy HT micro-titer plate reader (Biotek) or luminescence was measured (for the ADP-GLO assay) using a POLARstar Omega micro-titer plate reader (BMG).

[2] = system: Akt1 levels in U251MG cells; experiment: Biomarker quantitation by ELISA, Akt1; assay type: cell-based
Procedure: (§3) U251 cells were plated in 6 well format culture dishes overnight at 37° C. with 5% CO2 and then treated with increasing concentrations of test compounds for 48 h at 37° C. with 5% CO2. Quantification of total Akt1, EGFR, and Hsp70 in cell lysates was accomplished using ELISA kits (R&D Systems) according to the manufacturer's recommendations and utilizing a Synergy HT micro-titer plate reader (Biotek). Cell lysates were prepared as recommended in the kit procedure. Protein concentrations of lysates clarified using centrifugation were determined using a Bradford assay (Thermo Scientific), and the values were used to normalize the biomarker values.

U251MG cells [3] = experiment: Cell viability assay, cellular dehydrogenase activity (CCK-8); assay type: cell-based; conditions: Homo sapiens, U-251; 72 h at 37° C.; FIG. 1A
Procedure: as §1, §2

[4] = system: Hsp70 levels in U251MG cells; experiment: Biomarker quantitation by ELISA, Hsp70; assay type: cell-based; conditions: 15.6 uM, 48 h
Procedure: as §3

SMILES	EC50 (GBM10) [nM]	Effect on TMRE fluorescence in HEI193 cells (HEI193 cells)	IC50 (U251MG cells [1]) [nM]	Reduction of Akt1 levels ([2]; 15.6 uM, 48 h) [%]	IC50 ([2]; Homo sapiens, U-251, 48 h, read-out: Akt1 level reduction IC50) [nM]	IC50 (U251MG cells [3]) [nM]	Increase of Hsp70 levels [4] [fold]
COc1c(C)cnc(CN(CC2(c3ccc(F)cc3)CCOCC2)c2cc(Cl)nc(N)n2)c1C [Compound A, 6-chloro-4-N-{[4-(4-fluorophenyl)oxan-4-yl]methyl}-4-N-[(4-methoxy-3,5-dimethylpyridin-2-yl)methyl]pyrimidine-2,4-diamine]	280	dose-dependent decrease					
COc1c(C)cnc(CN(CCc2ccccn2)c2cc(Cl)nc(N)n2)c1C [Compound 1, 6-chloro-4-N-[(4-methoxy-3,5-dimethylpyridin-2yl)methyl]-4-N-[2-(pyridine-2-yl)ethyl]pyrimidine-2,4-amine]			2500	79	2400	1720	6
